Reference: patent US20250084097A1, “MACROCYCLIC AMIDE COMPOUNDS AND APPLICATION THEREOF” (Medshine Discovery Inc., priority 2021, published 2025)
Read-outs that look alike come from different tables or passages of the source.

Experiments:
[1] = target: Ba/F3-FL-EGFR (L858R/T790M/C797S) (Homo sapiens, UniProt P00533, T790M/C797S/L858R, cells depend on it); assay: Cell proliferation inhibition, CellTiter-Glo; type: cell-based
Procedure: AdenosineTri-Phosphate (ATP) is an energy carrier shared by various life activities in nature, and is the smallest unit of energy storage and transfer. The CellTiter-Glo™ living cell assay kit uses luciferase as a detector, and luciferase requires the participation of ATP in the process of luminescence. CellTiter-Glo™ reagent is added to a cell culture medium, and the luminescence value is measured. The light signal is directly proportional to the amount of ATP in the system, and ATP is positively correlated with the number of living cells. Therefore, cell proliferation can be detected by detecting ATP content with the CellTiter-Glo kit. In this assay, the cell lines were Ba/F3-FL-EGFR (L858R/T790M/C797S), Ba/F3-FL-EGFR (WT), Ba/F3-FL-EGFR (L858R), Ba/F3-FL-EGFR (del19-S752-I759), Ba/F3-FL-EGFR (del19-E746-A750/T790M/C797S), Ba/F3-FL-EGFR (L858R/T790M), Ba/F3-FL-EGFR (del19-E746-A750/T790M), Ba/F3-TEL-EGFR (L858R/C797S), Ba/F3-FL-EGFR (del19-E746-A750/C797S) stably transfected cell lines.
The cell lines were cultured in an incubator at 37° C. and 5% CO2. The cells were periodically passaged, and cells in logarithmic growth phase were taken for plating.
a) DMSO was used to prepare a 10 mM solution of the compound to be tested, and then the compound to be tested was diluted to 0.3 or 1 mM with DMSO.
b) Preparation of 1000× compound storage plate (tube): DMSO was used to dilute by 3-fold gradient from the highest concentration to the lowest concentration, with a total of 9 concentrations.
c) Preparation of 20× compound working solution: 49 μL of cell culture medium was added to a flat-bottomed 96-well transparent drug plate, and 1 μL of compound was pipetted from the 1000× compound storage plate to the cell culture medium of the 96-well transparent drug plate. 1 μL of DMSO was added to the vehicle control. After adding compound or DMSO, the well content was mixed to uniform by aspiration and expelling with pipette.
a) Cells were stained with trypan blue and viable cells were counted. The cell viability rate was required to be above 90%.
b) 95 μL of cell suspension (2000 cells/well) was added to each well of the compound detection cell plate, and culture medium without cells (containing 0.1% DMSO) was added to the Min control well.
c) Dosing in the compound detection cell plate: 5 μL of 20× compound working solution was added to the cell culture plate. 5 μL of DMSO-cell culture mixture was added to the Max control. The final concentration of DMSO was 0.1%.
d) The culture plate was incubated in an incubator at 37° C., 5% CO2 for 72 hours.
Cell proliferation inhibition rate (Inhibition Rate) data were processed using the following formula:
Inhibition Rate (Inh %)=100−(RLUDrug−RLUMin)/(RLUMax−RLUMin)*100%.
The inhibition rates corresponding to different concentrations of compounds were calculated, and then GraphPad Prism software was used to draw the inhibition rate curve and the IC50 value was calculated.

CYP1A2 = target: T1, CYP1A2 (Homo sapiens, UniProt P05177); assay: Cytochrome P450 isoenzyme inhibition, human liver microsomes; type: in vitro ADME; details: read-out: Cytochrome P450 isoenzyme inhibitory concentration CYP1A2
T1 construct: from tissue; host or cells: human liver microsomes
Procedure: (§1) The purpose of this study was to determine the inhibitory effect of test compounds on the activity of human liver microsomal cytochrome P450 isoenzymes (CYP1A2, CYP2C9, CYP2C19, CYP2D6 and CYP3A4).
(§2) Working solutions (100×final concentration) with concentrations of 5.00, 1.50, 0.500, 0.150, 0.0500, 0.0150, and 0.00500 mM were prepared by gradient dilution of the test compound (10.0 mM), while working solutions of each positive inhibitor and its specific substrate mixtures of P450 isozymes (CYP1A2, CYP2C9, CYP2C19, CYP2D6, and CYP3A4) were prepared; human liver microsomes stored in a refrigerator below −60° C. were thawed on ice; after all the human liver microsomes were thawed, the human liver microsomes were diluted with Potassium phosphate buffer (PB) to prepare a certain concentration of working solution (0.253 mg/ml).
(§3) First, 20.0 μL of the substrate mixture was added to a reaction plate (20.0 μL of PB was added to the Blank well), then 158 μL of human liver microsomal working solution was added to the reaction plate, and the reaction plate was placed on ice for use; at this time, 2.00 μL of each concentration of the test compound (N=1) and specific inhibitor (N=2) were added to the corresponding wells, and to the group without inhibitor (test compound or positive inhibitor) was added the corresponding organic solvent as control samples (1:1 DMSO:MeOH for the control sample of the test compound, and 1:9 DMSO:MeOH for all the positive control samples); after pre-incubation in a water bath at 37° C. for 10 min, 20.0 μL of cofactor (NADPH) solution was added to the reaction plate, and the reaction plate was incubated in a water bath at 37° C. for 10 min; The reaction was terminated by adding 400 μL of pre-cooled acetonitrile solution (containing 200 ng/mL Tolbutamide and Labetalol internal standard); the reaction plate was shaken on a shaker for 10 min; then centrifuged at 4000 rpm at 4° C. for 20 min; 200 μL of the supernatant was added to 100 μL of water to dilute the samples; and the plate was sealed, shaken for 10 min to mix well, and then analyzed by LC/MS/MS.
(§4) The rate of production of metabolites of each probe substrate was used to reflect the activity of each CYP isozyme. The activity of each isozyme in the solvent control incubation system without test article or positive inhibitor was set to be 100%, and the rate of production of metabolites of the probe substrate with different concentrations of test article or positive inhibitor was divided by the rate of production of metabolites of the solvent control samples, and then multiplied by 100% as the percentage of residual activity of each isozyme. The IC50 values of the test article and each positive inhibitor were calculated by nonlinear regression analysis using three or four parameters in XL fit software with the percentage of residual activity as the vertical coordinate and the inhibitor concentration as the horizontal coordinate. The IC50 values were labeled as “>50 μM” when the IC50 fitted by XL fit software was greater than the highest administered concentration (50 μM) or when the IC50 could not be fitted.

CYP2D6 = target: T2, CYP2D6 (Homo sapiens, UniProt P10635); assay: as above; type: in vitro ADME; details: read-out: Cytochrome P450 isoenzyme inhibitory concentration CYP2D6
T2 construct: from tissue; host or cells: human liver microsomes
Procedure: as §1, §2, §3, §4

CYP2C19 = target: T3, CYP2C19 (Homo sapiens, UniProt P33261); assay: as above; type: in vitro ADME; details: read-out: Cytochrome P450 isoenzyme inhibitory concentration CYP2C19
T3 construct: from tissue; host or cells: human liver microsomes
Procedure: as §1, §2, §3, §4

[2] = 72 hours, read-out: Cell half-maximal inhibition concentration IC50 Ba/F3-FL-EGFR (L858R/T790M/C797S)

Sequence of Ba/F3-FL-EGFR (L858R/T790M/C797S) (P00533 whole entry T790M/C797S/L858R): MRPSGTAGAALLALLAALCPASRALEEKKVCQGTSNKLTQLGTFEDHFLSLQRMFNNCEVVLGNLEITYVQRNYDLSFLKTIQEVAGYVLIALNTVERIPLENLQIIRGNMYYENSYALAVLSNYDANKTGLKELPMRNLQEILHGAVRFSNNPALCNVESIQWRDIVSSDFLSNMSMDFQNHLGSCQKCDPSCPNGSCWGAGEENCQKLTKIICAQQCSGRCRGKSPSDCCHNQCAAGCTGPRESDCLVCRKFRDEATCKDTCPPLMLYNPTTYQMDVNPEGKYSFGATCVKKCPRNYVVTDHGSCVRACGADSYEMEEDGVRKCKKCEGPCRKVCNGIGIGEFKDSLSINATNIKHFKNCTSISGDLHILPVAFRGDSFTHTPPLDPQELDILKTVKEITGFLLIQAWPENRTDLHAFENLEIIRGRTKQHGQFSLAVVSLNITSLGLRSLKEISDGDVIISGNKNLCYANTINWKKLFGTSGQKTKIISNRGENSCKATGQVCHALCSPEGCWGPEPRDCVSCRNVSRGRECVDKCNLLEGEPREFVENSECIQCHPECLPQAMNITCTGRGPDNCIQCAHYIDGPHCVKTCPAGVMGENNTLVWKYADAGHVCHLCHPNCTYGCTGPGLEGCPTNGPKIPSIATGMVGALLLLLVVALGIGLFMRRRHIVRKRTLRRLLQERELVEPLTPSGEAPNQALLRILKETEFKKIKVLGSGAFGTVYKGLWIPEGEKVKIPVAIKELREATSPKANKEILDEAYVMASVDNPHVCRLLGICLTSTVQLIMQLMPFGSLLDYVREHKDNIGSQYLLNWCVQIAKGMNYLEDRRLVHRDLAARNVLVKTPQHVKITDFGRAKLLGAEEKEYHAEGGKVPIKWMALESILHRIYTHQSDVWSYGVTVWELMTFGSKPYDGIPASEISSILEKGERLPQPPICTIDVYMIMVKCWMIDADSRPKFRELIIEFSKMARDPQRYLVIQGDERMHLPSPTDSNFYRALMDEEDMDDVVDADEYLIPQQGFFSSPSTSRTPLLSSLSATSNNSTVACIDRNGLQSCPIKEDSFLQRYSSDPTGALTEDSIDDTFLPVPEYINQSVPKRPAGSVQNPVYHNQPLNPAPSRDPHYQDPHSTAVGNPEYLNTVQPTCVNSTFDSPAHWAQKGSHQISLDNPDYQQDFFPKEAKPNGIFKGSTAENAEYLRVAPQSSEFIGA
T1 sequence (P05177 whole entry): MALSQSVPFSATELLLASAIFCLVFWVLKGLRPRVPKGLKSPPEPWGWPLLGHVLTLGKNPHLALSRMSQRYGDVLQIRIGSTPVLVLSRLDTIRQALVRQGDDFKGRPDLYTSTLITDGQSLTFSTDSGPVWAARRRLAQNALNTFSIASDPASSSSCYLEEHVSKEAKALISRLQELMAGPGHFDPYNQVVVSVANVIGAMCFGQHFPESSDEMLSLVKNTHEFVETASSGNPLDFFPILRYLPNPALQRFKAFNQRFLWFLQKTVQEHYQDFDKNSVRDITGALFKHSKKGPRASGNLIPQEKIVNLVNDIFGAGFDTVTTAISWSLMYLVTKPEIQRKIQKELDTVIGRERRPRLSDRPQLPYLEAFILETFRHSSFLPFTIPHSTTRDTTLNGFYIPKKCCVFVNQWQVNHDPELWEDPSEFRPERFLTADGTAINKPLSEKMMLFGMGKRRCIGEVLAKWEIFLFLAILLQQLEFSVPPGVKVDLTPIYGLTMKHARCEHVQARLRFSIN
T2 sequence (P10635 whole entry): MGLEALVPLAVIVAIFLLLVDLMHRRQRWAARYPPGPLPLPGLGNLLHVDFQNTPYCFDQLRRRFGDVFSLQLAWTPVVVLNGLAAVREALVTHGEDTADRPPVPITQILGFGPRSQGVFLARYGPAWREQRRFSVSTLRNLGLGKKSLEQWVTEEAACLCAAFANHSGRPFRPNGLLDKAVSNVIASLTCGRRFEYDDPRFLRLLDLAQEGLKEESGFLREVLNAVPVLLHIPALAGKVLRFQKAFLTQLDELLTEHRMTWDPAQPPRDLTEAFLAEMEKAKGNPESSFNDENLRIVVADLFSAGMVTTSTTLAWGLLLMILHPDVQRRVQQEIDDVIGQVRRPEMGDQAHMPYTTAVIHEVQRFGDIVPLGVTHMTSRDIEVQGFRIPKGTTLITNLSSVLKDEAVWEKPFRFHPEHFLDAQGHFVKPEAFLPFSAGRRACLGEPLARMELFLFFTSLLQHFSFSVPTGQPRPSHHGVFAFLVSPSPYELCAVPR
T3 sequence (P33261 whole entry): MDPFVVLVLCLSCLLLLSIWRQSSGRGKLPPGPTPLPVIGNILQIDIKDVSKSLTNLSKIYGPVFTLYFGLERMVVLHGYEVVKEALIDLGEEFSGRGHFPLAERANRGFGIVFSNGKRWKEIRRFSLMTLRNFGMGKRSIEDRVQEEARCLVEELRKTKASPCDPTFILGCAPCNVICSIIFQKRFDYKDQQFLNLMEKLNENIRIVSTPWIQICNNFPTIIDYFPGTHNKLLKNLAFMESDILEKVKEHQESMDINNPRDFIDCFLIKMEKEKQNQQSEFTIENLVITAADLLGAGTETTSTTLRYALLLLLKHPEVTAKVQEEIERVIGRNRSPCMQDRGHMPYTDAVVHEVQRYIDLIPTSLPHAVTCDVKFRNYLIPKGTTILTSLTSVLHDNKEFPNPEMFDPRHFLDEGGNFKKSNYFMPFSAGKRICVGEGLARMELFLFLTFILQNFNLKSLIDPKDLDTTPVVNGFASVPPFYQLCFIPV

Compound	GI50 [1, 2] [nM]	IC50 (CYP1A2) [nM]	IC50 (CYP2D6) [nM]	IC50 (CYP2C19) [nM]	GI50 ([1]; read-out: Cell half-maximal inhibition concentration IC50 Ba/F3-FL-EGFR (L858R/T790M/C797S), 72 hours) [nM]
Cc1cc2cc(n1)-c1cnn(C)c1OC[C@H]1CC[C@H](C1)CN1/C(=N/C2=O)Nc2ccc(N=S(C)(C)=O)cc21 (single isomer, unassigned) [WX-027A]	8.6	> 50000	> 50000	9800	
Cc1cc2cc(n1)-c1cnn(C)c1OCCC[C@@H](C)CN1/C(=N/C2=O)Nc2ccc(N=S3(=O)CCCC3)cc21 [WX-010 (trifluoroacetate)]	2.8				
Cc1cc2cc(n1)-c1cnn(C)c1OCCC[C@@H](C)CN1/C(=N/C2=O)Nc2ccc(N=S3(=O)CCOCC3)cc21 [WX-013]					4.3
Cc1cc2cc(n1)-c1cnn(C)c1OCCC[C@@H](C)CN1/C(=N/C2=O)Nc2ccc(N=S(C)(C)=O)c(Cl)c21 [WX-019]	5.7	> 50000	> 50000	3400	
